# Test results as given in patent US6486185B1, “3-heteroarylidene-2-indolinone protein kinase inhibitors” (Sugen, Inc., priority 1997, dated 2002).
# Target: T1, EGFR (Homo sapiens, UniProt P00533)
# T1 construct: expressed in transfected cells; host or cells: NIH 3T3/C7
# Assay: EGF receptor ELISA in cells engineered to express human EGF-R
# Type: cell-based
# Conditions: 50% inhibition of PTK activity over control
# Description: The cellular/catalytic assays described herein are performed in an ELISA format. The general procedure is a follows: a compound is introduced to cells expressing the test kinase, either naturally or recombinantly, for some period of time after which, if the test kinase is a receptor, a ligand known to activate the receptor's activity is added. The cells are lysed and the lysate is transferred to the wells of an ELISA plate previously coated with a specific antibody recognizing the substrate of the enzymatic phosphorylation reaction. Non-substrate components of the cell lysate are washed away and the amount of phosphorylation on the substrate is detected with an antibody specifically recognizing phosphotyrosine compared with control cells that were not contacted with a test compound.
# EGF Receptor kinase activity in cells genetically engineered to express human EGF-R can be measured as described below:
# The following materials and reagents are used
# a. EGF Ligand: stock concentration=16.5 μM; EGF 201, TOYOBO, Co., Ltd. Japan.
# b. 05-101 (UBI) (a monoclonal antibody recognizing an EGFR extracellular domain).
# c. Anti-phosphotyosine antibody (anti-Ptyr) (polyclonal).
# d. Detection antibody: Goat anti-rabbit lgG horse radish peroxidase conjugate, TAGO, Inc., Burlingame, Calif.
# Keep solution in dark at 4 C until used.
# The following protocol is used:
# 1. Coat ELISA plates (Corning, 96 well, Cat. #25805-96) with 05-101 antibody at 0.5 μg per well in PBS, 150 μL final volume/well, and store overnight at 4° C. Coated plates are good for up to 10 days when stored at 4° C.
# 2. On day of use, remove coating buffer and replace with blocking buffer (5% Carnation Instant NonFat Dry Milk in PBS). Incubate the plate, shaking, at room temperature (about 23° C. to 25° C.) for 30 minutes. Just prior to use, remove blocking buffer and wash plate 4 times with TBST buffer.
# 1. NIH 3T3/C7 cell line (Honegger, et al., Cell 51:199-209, 1987) can be use for this assay.
# 2. Choose dishes having 80-90% confluence for the experiment. Trypsinize cells and stop reaction by adding 10% CS DMEM medium. Suspend cells in DMEM medium (10% CS DMEM medium) and centrifuge once at 1000 rpm at room temperature for 5 minutes.
# 3. Resuspend cells in seeding medium (DMEM, 0.5% bovine serum), and count the cells using trypan blue. Viability above 90% is acceptable. Seed cells in DMEM medium (0.5% bovine serum) at a density of 10,000 cells per well, 100 μL per well, in a 96 well microtiter plate. Incubate seeded cells in 5% CO2 at 37° C. for about 40 hours.
# 1. Check seeded cells for contamination using an inverted microscope. Dilute drug stock (10 mg/mL in DMSO) 1:10 in DMEM medium, then transfer 5 μL to a test well for a final drug dilution of 1:200 and a final DMSO concentration of 1%. Control wells receive DMSO alone. Incubate in 5% CO2 at 37° C. for one hour.
# 2. Prepare EGF ligand: dilute stock EGF in DMEM so that upon transfer of 10 μL dilute EGF (1:12 dilution), 25 nM final concentration is attained.
# 3. Prepare fresh 10 mL HNTG* sufficient for 100 μL per well wherein HNTG* comprises: HNTG stock (2.0 mL), milli-Q H2O (7.3 mL), EDTA, 100 mM, pH 7.0 (0.5 mL), Na3VO4 0.5 M (0.1 mL) and Na4(P2O7), 0.2 M (0.1 mL).
# 5. After two hours incubation with drug, add prepared EGF ligand to cells, 10 μL per well, to yield a final concentration of 25 nM. Control wells receive DMEM alone. Incubate, shaking, at room temperature, for 5 minutes.
# 6. Remove drug, EGF, and DMEM. Wash cells twice with PBS. Transfer HNTG* to cells, 100 μL per well. Place on ice for 5 minutes. Meanwhile, remove blocking buffer from other ELISA plate and wash with TBST as described above.
# 7. With a pipette tip securely fitted to a micropipettor, scrape cells from plate and homogenize cell material by repeatedly aspirating and dispensing the HNTG* lysis buffer. Transfer lysate to a coated, blocked, and washed ELISA plate. Incubate shaking at room temperature for one hour.
# 8. Remove lysate and wash 4 times with TBST. […]
# T1 sequence (P00533 25-1210): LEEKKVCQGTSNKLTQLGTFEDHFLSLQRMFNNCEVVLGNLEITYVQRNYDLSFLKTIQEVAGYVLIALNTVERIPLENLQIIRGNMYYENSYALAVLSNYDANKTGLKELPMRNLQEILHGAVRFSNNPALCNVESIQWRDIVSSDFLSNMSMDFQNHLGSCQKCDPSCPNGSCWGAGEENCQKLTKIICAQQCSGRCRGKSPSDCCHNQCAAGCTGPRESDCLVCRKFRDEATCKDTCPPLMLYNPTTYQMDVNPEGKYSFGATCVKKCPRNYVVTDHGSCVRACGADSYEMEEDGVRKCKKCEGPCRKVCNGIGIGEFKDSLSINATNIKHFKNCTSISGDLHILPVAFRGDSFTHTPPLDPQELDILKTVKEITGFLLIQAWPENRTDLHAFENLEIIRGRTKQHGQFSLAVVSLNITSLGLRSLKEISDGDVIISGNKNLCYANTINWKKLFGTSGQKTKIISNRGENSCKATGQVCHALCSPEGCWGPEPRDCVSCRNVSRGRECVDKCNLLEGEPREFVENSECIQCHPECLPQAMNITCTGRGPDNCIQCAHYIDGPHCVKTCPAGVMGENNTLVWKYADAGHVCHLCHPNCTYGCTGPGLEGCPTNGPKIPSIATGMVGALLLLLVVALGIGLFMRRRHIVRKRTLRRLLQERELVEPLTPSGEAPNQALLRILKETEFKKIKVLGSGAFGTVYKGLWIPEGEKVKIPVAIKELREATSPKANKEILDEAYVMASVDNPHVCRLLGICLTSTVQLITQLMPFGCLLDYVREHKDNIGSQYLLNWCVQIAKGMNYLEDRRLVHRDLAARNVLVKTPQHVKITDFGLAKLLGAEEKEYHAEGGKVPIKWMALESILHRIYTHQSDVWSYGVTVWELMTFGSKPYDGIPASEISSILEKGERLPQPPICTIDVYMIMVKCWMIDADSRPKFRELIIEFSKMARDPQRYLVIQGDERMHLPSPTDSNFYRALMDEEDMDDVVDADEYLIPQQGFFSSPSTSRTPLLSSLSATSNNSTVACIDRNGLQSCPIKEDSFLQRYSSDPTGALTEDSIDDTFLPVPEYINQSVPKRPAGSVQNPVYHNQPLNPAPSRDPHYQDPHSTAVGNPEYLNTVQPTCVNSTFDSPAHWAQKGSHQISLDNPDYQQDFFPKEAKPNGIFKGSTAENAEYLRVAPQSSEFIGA
row,Compound,IC50 [µM]
1,"CCOC(=O)c1c(C)[nH]c(C=C2C(=O)Nc3ccc(NC(=O)c4ccc(C(=O)OC)cc4)cc32)c1C [3-(2,4-dimethyl-3-ethoxycarbonylpyrrol-5-methylidenyl)-5-(4-methoxycarbonylbenzamido)-2-indolinone]",> 10
2,"CCOC(=O)c1c(C)[nH]c(C=C2C(=O)Nc3ccc(Br)cc32)c1C [3-(2,4-dimethyl-3-ethoxycarbonylpyrrol-5-methylidenyl)-5-bromo-2-indolinone]",> 25
3,"CC(=O)c1[nH]c(C=C2C(=O)Nc3ccccc32)c(C)c1C [3-(2-acetyl-3,4-dimethylpyrrol-5-methylidenyl)-2-indolinone]",> 100
4,COC(=O)Cc1c(Cl)[nH]c(C=C2C(=O)Nc3ccccc32)c1C(=O)OC [3-(2-chloro-4-methoxycarbonyl-3-methoxycarbonylmethylpyrrol-5-methylidenyl)-2-indolinone],> 50
5,CCOC(=O)c1[nH]c(C=C2C(=O)Nc3ccccc32)c(C(C)=O)c1C [3-(4-acetyl-2-ethoxycarbonyl-3-methylpyrrol-5-methylidenyl)-2-indolinone],> 10
6,CCOC(=O)c1c[nH]c(C=C2C(=O)Nc3ccccc32)c1C [3-(4-ethoxycarbonyl-3-methylpyrrol-2-methylidenyl)-2-indolinone],> 100
7,CCOC(=O)CCc1c(C(=O)OCC)[nH]c(C=C2C(=O)Nc3ccccc32)c1CC(=O)OCC [3-[2-ethoxycarbonyl-3-(2-ethoxycarbonylethyl)-4-ethoxycarbonylmethyl)pyrrol-5-methylidenyl)-2-indolinone],> 10
8,Cc1c[nH]c(C=C2C(=O)Nc3ccccc32)c1CCC(=O)O [3-[3-(2-carboxyethyl-4-methylpyrrol-2-methylidenyl]-2-indolinone],> 100
9,"COC(=O)CCc1c[nH]c(C=C2C(=O)Nc3cc(OC)c(OC)cc32)c1C [3-[4-(2-methoxycarbonylethyl)-3-methylpyrrol-2-methylidenyl]-5,6-dimethoxy-2-indolinone]",> 50
10,COC(=O)CCc1c[nH]c(C=C2C(=O)Nc3ccccc32)c1C [3-[4-(2-methoxycarbonylethyl-3-methylpyrrol-2-methylidenyl]-2-indolinone],> 100
